Assay results published in ChEMBL document CHEMBL3885861, “Open TG-GATES”.

Species on record: Rattus norvegicus
Test: Open TG-GATES - Regimen: Daily Repeat
Assay type: toxicity, organism-based, Sprague-Dawley
Set-up: regimen Daily Repeat, gender Male, age 6 weeks
Details: in vivo, po, 300 mg/kg, route gavage, dose level Middle; for APTT / Bas / Eos / Fbg / Hb / Ht / Lym / MCH / MCHC / MCV / Mono / Neu / PT / Plat / RBC / Ret / WBC: tissue Blood; for KIDNEY_L / KIDNEY_R / KIDNEY_TOTAL: tissue Kidney; for LIVER: tissue Liver; for A/G / ALP / ALT / AST / BUN / CRE / Ca / Cl / DBIL / GLC / IP / K / LDH / Na / PL / RALB / TBIL / TC / TG / TP / gamma-GTP: tissue Plasma

Cc1nnc2n1-c1ccc(Cl)cc1C(c1ccccc1Cl)=NC2 [TRIAZOLAM]
TERMINAL_BW (72 h, time 3 day): 220.9 g
APTT (72 h, time 3 day): 25.7 s
Bas (72 h, time 3 day): 0.2%
Eos (72 h, time 3 day): 1%
Fbg (72 h, time 3 day): 302 mg/dL
Hb (72 h, time 3 day): 13.8 g/dL
Ht (72 h, time 3 day): 41.2%
Lym (72 h, time 3 day): 78.6%
MCH (72 h, time 3 day): 21.6 pg
MCHC (72 h, time 3 day): 33.4%
MCV (72 h, time 3 day): 64.4 fL
Mono (72 h, time 3 day): 3.2%
Neu (72 h, time 3 day): 16.2%
PT (72 h, time 3 day): 12.8 s
Plat (72 h, time 3 day): 108.5 x10_4/uL
RBC (72 h, time 3 day): 639.2 x10_4/ul
Ret (72 h, time 3 day): 6.8%
WBC (72 h, time 3 day): 124.2 x10_2/uL
KIDNEY_L (72 h, time 3 day): 1 g
KIDNEY_R (72 h, time 3 day): 1 g
KIDNEY_TOTAL (72 h, time 3 day): 1.9 g
LIVER (72 h, time 3 day): 10.9 g
A/G (72 h, time 3 day): 0.9
ALP (72 h, time 3 day): 1522.4 IU/L
ALT (72 h, time 3 day): 53.4 IU/L
AST (72 h, time 3 day): 74.4 IU/L
BUN (72 h, time 3 day): 14.6 mg/dL
CRE (72 h, time 3 day): 0.2 mg/dL
Ca (72 h, time 3 day): 11.1 mg/dL
Cl (72 h, time 3 day): 104.2 meq/L
DBIL (72 h, time 3 day): 0.014 mg/dL
GLC (72 h, time 3 day): 176.8 mg/dL
IP (72 h, time 3 day): 8.2 mg/dL
K (72 h, time 3 day): 3.9 meq/L
LDH (72 h, time 3 day): 104.8 IU/L
Na (72 h, time 3 day): 141.6 meq/L
PL (72 h, time 3 day): 155 mg/dL
RALB (72 h, time 3 day): 2.6 g/dL
TBIL (72 h, time 3 day): 0.048 mg/dL
TC (72 h, time 3 day): 81 mg/dL
TG (72 h, time 3 day): 82 mg/dL
TP (72 h, time 3 day): 5.6 g/dL
gamma-GTP (72 h, time 3 day): 1 IU/L
TERMINAL_BW ([…], time 7 day): 262.7 g
TERMINAL_BW ([…], time 14 day): 306.6 g
TERMINAL_BW ([…], time 28 day): 407.3 g
APTT ([…], time 7 day): 19.2 s
Bas ([…], time 7 day): 0%
Eos ([…], time 7 day): 1%
Fbg ([…], time 7 day): 262.6 mg/dL
Hb ([…], time 7 day): 13.6 g/dL
Ht ([…], time 7 day): 40.5%
Lym ([…], time 7 day): 76.6%
MCH ([…], time 7 day): 21.4 pg
MCHC ([…], time 7 day): 33.6%
MCV ([…], time 7 day): 63.6 fL
Mono ([…], time 7 day): 3.4%
Neu ([…], time 7 day): 18.6%
PT ([…], time 7 day): 12.8 s
Plat ([…], time 7 day): 124.7 x10_4/uL
RBC ([…], time 7 day): 637.8 x10_4/ul
Ret ([…], time 7 day): 7%
WBC ([…], time 7 day): 119.6 x10_2/uL
APTT ([…], time 14 day): 17.8 s
Bas ([…], time 14 day): 0.4%
Eos ([…], time 14 day): 1%
Fbg ([…], time 14 day): 245.8 mg/dL
Hb ([…], time 14 day): 14.1 g/dL
Ht ([…], time 14 day): 43.1%
Lym ([…], time 14 day): 76%
MCH ([…], time 14 day): 19.9 pg
MCHC ([…], time 14 day): 32.8%
MCV ([…], time 14 day): 60.8 fL
Mono ([…], time 14 day): 2.2%
Neu ([…], time 14 day): 19.4%
PT ([…], time 14 day): 13.5 s
Plat ([…], time 14 day): 113 x10_4/uL
RBC ([…], time 14 day): 710 x10_4/ul
Ret ([…], time 14 day): 4.9%
WBC ([…], time 14 day): 121.8 x10_2/uL
APTT ([…], time 28 day): 18.4 s
Bas ([…], time 28 day): 0%
Eos ([…], time 28 day): 1.2%
Fbg ([…], time 28 day): 262.4 mg/dL
Hb ([…], time 28 day): 15.3 g/dL
Ht ([…], time 28 day): 45.6%
Lym ([…], time 28 day): 82%
MCH ([…], time 28 day): 19.3 pg
MCHC ([…], time 28 day): 33.6%
MCV ([…], time 28 day): 57.5 fL
Mono ([…], time 28 day): 1.4%
Neu ([…], time 28 day): 14.2%
PT ([…], time 28 day): 13.6 s
Plat ([…], time 28 day): 106.2 x10_4/uL
RBC ([…], time 28 day): 793.4 x10_4/ul
Ret ([…], time 28 day): 2.3%
WBC ([…], time 28 day): 88.2 x10_2/uL
KIDNEY_L ([…], time 7 day): 1.1 g
KIDNEY_R ([…], time 7 day): 1.1 g
KIDNEY_TOTAL ([…], time 7 day): 2.2 g
KIDNEY_L ([…], time 14 day): 1.2 g
KIDNEY_R ([…], time 14 day): 1.2 g
KIDNEY_TOTAL ([…], time 14 day): 2.4 g
KIDNEY_L ([…], time 28 day): 1.4 g
KIDNEY_R ([…], time 28 day): 1.4 g
KIDNEY_TOTAL ([…], time 28 day): 2.8 g
LIVER ([…], time 7 day): 12.6 g
LIVER ([…], time 14 day): 13.4 g
LIVER ([…], time 28 day): 15.8 g
A/G ([…], time 7 day): 0.9
ALP ([…], time 7 day): 1686 IU/L
ALT ([…], time 7 day): 53 IU/L
AST ([…], time 7 day): 75 IU/L
BUN ([…], time 7 day): 19 mg/dL
CRE ([…], time 7 day): 0.2 mg/dL
Ca ([…], time 7 day): 11.1 mg/dL
Cl ([…], time 7 day): 104.8 meq/L
DBIL ([…], time 7 day): 0.012 mg/dL
GLC ([…], time 7 day): 187.2 mg/dL
IP ([…], time 7 day): 7.5 mg/dL
K ([…], time 7 day): 4.2 meq/L
LDH ([…], time 7 day): 84.8 IU/L
Na ([…], time 7 day): 141.4 meq/L
PL ([…], time 7 day): 162.8 mg/dL
RALB ([…], time 7 day): 2.6 g/dL
TBIL ([…], time 7 day): 0.038 mg/dL
TC ([…], time 7 day): 79 mg/dL
TG ([…], time 7 day): 103.4 mg/dL
TP ([…], time 7 day): 5.7 g/dL
gamma-GTP ([…], time 7 day): 1 IU/L
A/G ([…], time 14 day): 0.8
ALP ([…], time 14 day): 1485.8 IU/L
ALT ([…], time 14 day): 43 IU/L
AST ([…], time 14 day): 73 IU/L
BUN ([…], time 14 day): 15 mg/dL
CRE ([…], time 14 day): 0.2 mg/dL
Ca ([…], time 14 day): 10.8 mg/dL
Cl ([…], time 14 day): 104.6 meq/L
DBIL ([…], time 14 day): 0.008 mg/dL
GLC ([…], time 14 day): 182.2 mg/dL
IP ([…], time 14 day): 7.2 mg/dL
K ([…], time 14 day): 4.1 meq/L
LDH ([…], time 14 day): 87.4 IU/L
Na ([…], time 14 day): 142.8 meq/L
PL ([…], time 14 day): 140 mg/dL
RALB ([…], time 14 day): 2.6 g/dL
TBIL ([…], time 14 day): 0.036 mg/dL
TC ([…], time 14 day): 67.2 mg/dL
TG ([…], time 14 day): 105.4 mg/dL
TP ([…], time 14 day): 5.7 g/dL
gamma-GTP ([…], time 14 day): 1.2 IU/L
A/G ([…], time 28 day): 0.8
ALP ([…], time 28 day): 1211.8 IU/L
ALT ([…], time 28 day): 36.4 IU/L
AST ([…], time 28 day): 67.8 IU/L
BUN ([…], time 28 day): 16.8 mg/dL
CRE ([…], time 28 day): 0.3 mg/dL
Ca ([…], time 28 day): 10.7 mg/dL
Cl ([…], time 28 day): 105 meq/L
DBIL ([…], time 28 day): 0.012 mg/dL
GLC ([…], time 28 day): 186.4 mg/dL
IP ([…], time 28 day): 6.2 mg/dL
K ([…], time 28 day): 4.1 meq/L
LDH ([…], time 28 day): 82.2 IU/L
Na ([…], time 28 day): 142 meq/L
PL ([…], time 28 day): 145.8 mg/dL
RALB ([…], time 28 day): 2.7 g/dL
TBIL ([…], time 28 day): 0.058 mg/dL
TC ([…], time 28 day): 70.6 mg/dL
TG ([…], time 28 day): 110.8 mg/dL
TP ([…], time 28 day): 6.2 g/dL
gamma-GTP ([…], time 28 day): 1 IU/L
